Reference: publication PMC9226124, “Macrocycle-stabilization of its interaction with 14-3-3 increases plasma membrane localization and activity of CFTR” (Nature Communications, 2022)
“And” between values parts separate entries of the source, which are not always exact repeats. Equal entries are not always repeated. “Also recorded” adds a separate entry of the source.

Legend:
[1] = target: T1, F508del-CFTR in BHK cells (Homo sapiens, UniProt P13569, DEL508-508); experiment: FLIPR membrane potential (FMP) assay; assay type: cell-based, hamster; details: for FMP assay signal (Fig5b) / FMP assay signal (Fig5c): individual replicates; for CFTR function (FMP assay): BHK cells, 24 h, 20 μM compound, genistein, forskolin
T1 construct: expressed in transfected cells; host or cells: baby hamster kidney (BHK) cells
T1 sequence (P13569 with tags, fused parts or gaps DEL508-508): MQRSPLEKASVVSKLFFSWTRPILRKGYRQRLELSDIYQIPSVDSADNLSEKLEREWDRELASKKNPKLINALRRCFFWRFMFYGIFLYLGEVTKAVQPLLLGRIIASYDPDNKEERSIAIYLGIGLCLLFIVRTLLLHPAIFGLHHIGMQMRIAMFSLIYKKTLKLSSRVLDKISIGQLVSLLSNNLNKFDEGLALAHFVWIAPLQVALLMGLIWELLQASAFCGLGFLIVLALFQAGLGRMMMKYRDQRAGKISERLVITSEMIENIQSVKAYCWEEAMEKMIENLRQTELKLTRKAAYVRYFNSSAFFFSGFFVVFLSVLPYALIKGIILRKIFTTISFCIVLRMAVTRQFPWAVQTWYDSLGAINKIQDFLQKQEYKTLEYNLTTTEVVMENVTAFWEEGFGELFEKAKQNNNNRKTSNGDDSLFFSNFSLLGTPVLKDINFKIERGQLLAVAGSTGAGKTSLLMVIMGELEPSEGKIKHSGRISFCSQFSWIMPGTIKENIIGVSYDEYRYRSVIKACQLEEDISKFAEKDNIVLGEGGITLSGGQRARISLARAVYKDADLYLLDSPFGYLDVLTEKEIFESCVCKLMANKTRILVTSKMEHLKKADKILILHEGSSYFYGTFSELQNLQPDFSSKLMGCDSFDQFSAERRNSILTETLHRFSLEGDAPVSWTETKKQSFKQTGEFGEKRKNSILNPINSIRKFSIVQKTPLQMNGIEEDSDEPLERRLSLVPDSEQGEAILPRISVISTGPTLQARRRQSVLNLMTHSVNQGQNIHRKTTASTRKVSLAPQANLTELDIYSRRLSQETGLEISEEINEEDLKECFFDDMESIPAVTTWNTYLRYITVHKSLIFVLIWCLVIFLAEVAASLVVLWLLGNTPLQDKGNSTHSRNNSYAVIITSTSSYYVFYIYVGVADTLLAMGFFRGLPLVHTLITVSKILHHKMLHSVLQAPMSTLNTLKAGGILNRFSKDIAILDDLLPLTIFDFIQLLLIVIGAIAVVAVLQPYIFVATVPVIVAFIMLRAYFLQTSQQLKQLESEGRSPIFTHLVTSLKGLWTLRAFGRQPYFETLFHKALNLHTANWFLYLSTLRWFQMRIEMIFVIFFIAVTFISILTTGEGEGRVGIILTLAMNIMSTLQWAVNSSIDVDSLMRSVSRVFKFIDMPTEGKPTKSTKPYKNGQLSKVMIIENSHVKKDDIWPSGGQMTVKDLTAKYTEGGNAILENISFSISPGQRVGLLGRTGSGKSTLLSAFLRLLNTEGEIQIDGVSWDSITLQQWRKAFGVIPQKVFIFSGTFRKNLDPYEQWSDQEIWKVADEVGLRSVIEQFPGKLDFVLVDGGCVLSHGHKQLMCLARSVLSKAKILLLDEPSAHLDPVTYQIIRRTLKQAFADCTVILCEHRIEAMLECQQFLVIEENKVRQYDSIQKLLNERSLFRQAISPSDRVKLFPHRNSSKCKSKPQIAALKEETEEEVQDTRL
Method: Twelve (12) validated hit compounds from the initial screening and focused validation library were tested for their effect on F508del-CFTR trafficking. Baby hamster kidney (BHK) cells expressing 3HA-tagged F508del-CFTR were treated for 24 h with 10 μM compound. After fixation of the cells, a combination of mouse monoclonal anti-HA antibody and anti-mouse IgG conjugated with FITC was used to detect F508del-CFTR that had trafficked to the plasma membrane as described previously. […] Additionally, a fluorescence imaging plate reader (FLIPR) Membrane Potential (FMP) assay was performed. This assay measures real-time membrane potential changes associated with ion channel activation and ion transporter proteins. F508del-CFTR expressing BHK cells were incubated for 24 h with 20 μM compound before treatment with the potentiator genistein, FMP dye, and activator forskolin. The fluorescence intensity is thus a measure for the function of the CFTR protein in the plasma membrane of these cells. The F508del-CFTR corrector VX-809 (lumacaftor) and the triple combination Trikafta® were used as positive controls in this assay. […] Another cellular assay was performed with the Ussing Chamber, which detects and quantifies transport of ions across epithelial tissue. F508del-CFTR expressing cystic fibrosis epithelial (CFBE) cells were treated for 18 h with 20 μM CY007424. After forskolin and genistein stimulation, the short-circuit current of the cells was measured.
Fig. 5 Cellular activity of macrocycles stabilizing the 14-3-3/CFTR PPI. a Surface expression of 3HA-tagged F508del-CFTR in BHK cells incubated for 24 h with 10 μM compound and treated with mouse monoclonal anti-HA antibody and anti-mouse IgG conjugated with FITC (n = 4 or n = 3 biological replicates, bars represent the mean). b, c FLIPR Membrane Potential (FMP) assay of F508del-CFTR expressing BHK cells treated for 24 h with the macrocycles (b, n = 6 biological replicates, bars represent the mean) or with CY007424 and/or VX-809 or Trikafta®, with and without CFTR inhibitor INH172 (c, n = 4 biological replicates, bars represent the mean). d Using chamber experiment of F508del-CFTR expressing CFBE cells treated for 18 h with CY007424, VX-809, or Trikafta® or in combinations. CFTR activity is assayed by measurement of short-circuit current of cells after stimulation by forskolin and the potentiator genistein (n = 3 or n = 6 biological replicates, bars represent the mean). Source data are provided as a Source Data file.
The FLuorescence Imaging Plate Reader (FLIPR) Membrane Potential (FMP) assay is based on the technique developed by Van Goor et al.[30] F508del-CFTR expressing baby hamster kidney (BHK) cells were incubated with the compounds for 24 h at 37 °C. The growth medium was removed from the cells by inverting the plate and FMP dye (Molecular Devices, Part #R8042) including the potentiator genistein (Sigma, G6649) was added back in 70 μl of low Cl^- containing buffer (160 mM NaGluconate, 4.5 mM KCl, 2 mM CaCl2, 1 mM MgCl2, 10 mM D-Glucose, 10 mM HEPES (pH7.4)). The plates were incubated for 5 min at RT before activation of CFTR in the plate reader (SynergyMX) with the addition of 14 µL of FMP dye in low Cl^- buffer containing 6x forskolin (Sigma, F6886) following a 2 min baseline read. Fluorescence intensity was monitored for 5 min following CFTR activation. Reported is the rate of fluorescence intensity change over time.

[2] = target: T2, 14-3-3/full-length CFTR interaction (Homo sapiens, UniProt P13569, DEL508-508); experiment: Immunoprecipitation (pull-down) from HEK293 cells expressing F508del-CFTR; assay type: cell-based; details: 24 h, 10 μM
T2 construct: expressed in transfected cells; host or cells: HEK 293 cells expressing F508del-CFTR (Carlile et al. 2015)
T2 sequence (P13569 with tags, fused parts or gaps DEL508-508): as above
Method: Background polarization was subtracted from all values, n = 3 technical replicates. g Immunoprecipitation study to show the effect of CY007424 on the interaction between of CFTR and 14-3-3 proteins. CFTR and separately 14-3-3 immunoprecipitation from HEK293 cells expressing F508del-CFTR after 24 h of CY007424 (10μM) (424) or vehicle alone (CON). LYS: cellular lysate prior to preclear, SUP: supernatant after specific bead incubation, PC: second preclear, LW: last wash after the immunoprecipitation IP are the specific antibody beads. IP, upper blot: probed with CFTR AB, lower blot: probed with 14-3-3 AB. Source data are provided as a Source Data file.
CFTR monoclonal-mAb (M3A7, ab270238 abcam) and 14-3-3 monoclonal-Rbt-Ab (Y62, ab32560 abcam) were separately covalently linked to Protein A–Sepharose (Pharmacia, NJ, U.S.A.) by cross-linking with dimethyl pimelimidate (DMP) utilizing standard procedures.
Briefly, Protein A–Sepharose beads were washed two times in 0.2 M sodium borate, pH 9.0 for 5 min each. The beads were then mixed with antibody (for 1 mL of beads use 0.5 mg of antibody). These were placed on a rotator and mixed continuously for 2 h at room temperature (RT). The beads were washed with sodium borate twice, followed by one wash with 0.2 M triethanolamine, pH 8.5. An equal volume of 40 mM DMP in 0.2 M triethanolamine was added. The mixture was mixed for 1 h at RT and the beads then collected. The beads were incubated in 0.2 M ethanolamine, pH 8.2 for 5 min at RT. Beads were washed with the sodium borate solution, and stored at 4 °C until use. Beads were rinsed in lysis buffer before use.
Once HEK 293 cells expressing F508del-CFTR (cells earlier described by Carlile et al. 2015)[29] were treated, they were harvested and immunoprecipitated as follows. Cells were washed twice in sterile TBS, trypsin-treated and transferred to a Falcon tube with media and sera and centrifuged at 800 g at RT for 5 min. Pellets were washed twice in TBS prewarmed to 37 °C and centrifuged at 800–1000 g for 5 min at 4 °C. […]

With `N=C(N)NCCCC1NC(=O)C(CCCCN)NCc2ccccc2Sc2ccccc2CNC(=O)C(Cc2ccc(O)cc2)NC1=O` (stereo not drawn) [CY001951] the “FMP assay signal (Fig5b)” value [1] was 112.821 and 82.214 and 93.607 and 85.25 and 102.571 and 92.764.

`NCCCCC1NCc2ccccc2Sc2ccccc2CNC(=O)C(Cc2cccc(Cl)c2)NC(=O)C(Cc2ccc(O)cc2)NC1=O` (stereo not drawn) [CY007288] was tested, and the “FMP assay signal (Fig5b)” value [1] was 56.536 and 49 and 51.321 and 53.964 and 53 and 52.964.

`NCCCC1NCc2ccccc2Sc2ccccc2CNC(=O)C(Cc2c[nH]c3ccccc23)NC(=O)C(Cc2ccccc2)NC1=O` (stereo not drawn) [CY007345] was tested, and the “FMP assay signal (Fig5b)” value [1] was 99.75 and 93 and 100.071 and 96.107 and 84.214 and 89.179.

In the case of `N=C(N)NCCCC1NCc2ccccc2Sc2ccccc2CNC(=O)C(Cc2ccc(O)cc2)NC(=O)C(CCCN)NC1=O` (stereo not drawn) [CY007424], the “stabilizing effect on the 14-3-3/CFTR interaction in cells (pull-down)” value (“stabilizing effect” below) [2] is reported as “stabilizing effect; also recorded: increased CFTR binding to 14-3-3”, the “CFTR function (FMP assay)” value [1] is reported as “clear corrector function” and the “FMP assay signal (Fig5c)” value ([1]; Compound alone) is reported as 416.179 and 423.464 and 390.429 and 379.429. The “FMP assay signal (Fig5c)” value ([1]; With CFTR-inh172) was 23.036 and 3.107 and 4.393 and -13.071 and the “FMP assay signal (Fig5b)” value [1] was 405.536 and 378.214 and 384.321 and 349.393 and 433.679 and 385.071.

`N=C(N)NCCCC1NC(=O)C(CCC(N)=O)NC(=O)C(CCCNC(=N)N)NC(=O)C2CCCN2Cc2cccc(c2)-c2ccccc2CNC1=O` (stereo not drawn) [CY007455] was tested, and the “FMP assay signal (Fig5b)” value [1] was 35.786 and 28.786 and 56.25 and 44.357 and 64.929 and 56.893.

For `N=C(N)NCCCC1NC(=O)C(CCC(N)=O)NC(=O)C(CCCNC(=N)N)NC(=O)C2CCCN2Cc2cccc(c2)-c2ccccc2CNC1=O` (stereo not drawn) [CY007458], the “FMP assay signal (Fig5b)” value [1] was 121.393 and 152.286 and 131.821 and 116.107 and 106.464 and 116.643.

`CC1NC(=O)C(CCCNC(=N)N)NC(=O)C2CCCN2Cc2cccc(c2)-c2ccccc2CNC(=O)C(CCCNC(=N)N)NC1=O` (stereo not drawn) [CY007476] was tested, and the “stabilizing effect” value [2] was “did not show a stabilizing effect; also recorded: did not enhance binding of 14-3-3”, the “CFTR function (FMP assay)” value [1] was “inactive” and the “FMP assay signal (Fig5b)” value [1] was 153.964 and 148.571 and 156.714 and 190.464 and 184.357 and 154.25.

In the case of `CN1CC(=O)NC(CCCNC(=N)N)C(=O)NC(CCC(N)=O)C(=O)NC(CCCNC(=N)N)C(=O)NCc2ccccc2-c2cccc(c2)C1` (stereo not drawn) [CY007491], the “stabilizing effect” value [2] is reported as “did not show a stabilizing effect; also recorded: did not enhance binding of 14-3-3”, the “CFTR function (FMP assay)” value [1] is reported as “inactive” and the “FMP assay signal (Fig5b)” value [1] is reported as 58.5 and 35.75 and 49.393 and 59.036 and 29.929 and 21.679.

With `N=C(N)NCCCC1NC(=O)C(CCC(N)=O)NC(=O)C(CCCNC(=N)N)NC(=O)C2Cc3ccccc3CN2Cc2cccc(c2)-c2ccccc2CNC1=O` (stereo not drawn) [CY007493] the “FMP assay signal (Fig5b)” value [1] was 74.143 and 78.429 and 43.607 and 72 and 65.679 and 76.179.

`N=C(N)NCCCC1NC(=O)C(CCC(N)=O)NC(=O)C(CCCNC(=N)N)NC(=O)C2CCCN2Cc2ccccc2Sc2ccccc2CNC1=O` (stereo not drawn) [CY007502] was tested, and the “FMP assay signal (Fig5b)” value [1] was 13.036 and 27.929 and 39.536 and 44.036 and 44.893 and 22.781.

In the case of `C=CC(C)(C)OC[C@H]1O[C@H](O[C@@H]2C3=C([C@H](C)COC(C)=O)C[C@H](O)[C@]3(C)/C=C3/[C@@H](COC)CC[C@H]3[C@@H](C)[C@H]2O)[C@H](O)[C@@H](OC(C)=O)[C@@H]1O` [FC-A, fusicoccin A, reference compound], the “FMP assay signal (Fig5c)” value ([1]; Compound alone) is reported as 170.429 and 204.929 and 173.75 and 189.679, the “FMP assay signal (Fig5c)” value ([1]; With CFTR-inh172) is reported as 23.571 and 18.107 and 23.429 and 27.536 and the “FMP assay signal (Fig5b)” value [1] is reported as 224.714 and 247.893 and 215.429 and 224.357 and 209.61 and 238.08.
